Experiments:
Format in all cases: in vivo, human
[1] = system: Subjects Having Insomnia Disorder; assay: Example 2: wake after sleep onset in the second half of the night (WASO2H), polysomnography; settings: Zolpidem ER 6.25 mg
Procedure: In some embodiments, a sleep parameter is determined objectively using polysomnography. Polysomnography is the monitoring of multiple electrophysiological parameters during sleep and generally includes measurement of EEG activity, electro-oculographic activity and electromyographic activity, as well as other measurements.
WASO2H: wake after sleep onset in the second half of the night: minutes of wake during the interval from 240 minutes after lights off until lights on.
(§1) The treatment period lasted for 31 days. Subjects were randomized in a double-blind manner and received placebo, a tablet containing 5 mg of lemborexant, a tablet containing 10 mg of lemborexant, or a tablet containing 6.25 mg of zolpidem ER.
(§2) Within 5 minutes of the subject's mean habitual bedtime, study drug was administered and an overnight polysomnogram recording was initiated. At completion of the recording the following morning (Day 2), postural stability and cognitive performance were assessed. On the Day 2 evening, subjects returned to the clinic and a blood sample was collected before administering study drug, and then study drug was administered within 5 minutes of the subject's mean habitual bedtime. Again, a polysomnogram recording was initiated. The next morning (Day 3), postural stability and cognitive performance were assessed. A blood sample was also collected.
(§3) On Day 29, subjects returned to the clinic. Study drug was administered within 5 minutes of the subject's mean habitual bedtime and a polysomnogram recording was conducted. On the following morning (Day 30), postural stability and cognitive performance were assessed. After 1.5 hours of waketime, subjects rated their morning sleepiness level.
(§4) On the evening of Day 30, subjects returned to the clinic. A pre-dose blood sample was collected and study drug was again administered within 5 minutes of the subject's mean habitual bedtime. A polysomnogram recording was initiated. The following morning (Day 31), postural stability and cognitive performance were assessed and a blood sample was obtained. The ISI, FSS, EQ-5D-3L and PGI-Insomnia were administered. Blood and urine samples were collected for routine safety assessment. An electrocardiogram was performed, and vital signs and weight were assessed. The eC-SSRS was then administered to the subject. At 1.5 hours after waketime, subjects rated their morning sleepiness level.
Another key secondary endpoint was to determine the change from baseline for mean wake after sleep onset in the second half of the night on Days 29 and 30 after administration of 5 mg or 10 mg of lemborexant compared to administration of 6.25 mg of zolpidem ER.

[2] = system: Subjects Having Insomnia Disorder; assay: Example 2: subjective sleep onset latency (sSOL), sleep diary; settings: 6.25 mg
Text: As used herein, the term “subjective sleep onset latency”, abbreviated as “sSOL”, means the estimated number of minutes from the time that the subject attempted to sleep until sleep onset. In some embodiments, sSOL is derived from data entered in a subject's Sleep Diary.
(§5) In some embodiments, sleep diaries were used to assess sleep parameters reported by subjects (i.e., subjective assessments) including subjective sleep onset latency (sSOL), subjective sleep efficiency (sSE), subjective WASO (sWASO), and subjective total sleep time (sTST). Subjects were instructed to complete the Sleep Diary developed based on the consensus Sleep Diary as described in Carney et al., “The consensus sleep diary: standardizing prospective sleep self-monitoring,” Sleep 2012; 35(2):287-302. In some embodiments, the Sleep Diary was used to assess the subject's global perception of quality of sleep on the previous night with the following question: “How would you rate the quality of your sleep last night?” Subjects rated the quality of their sleep on a scale from 1 to 9, with 1 being extremely poor and 9 being extremely good. In some embodiments, the Sleep Diary was used to assess subjective ratings of morning sleepiness with the following question: “How alert/sleepy do you feel this morning?” Subjects rated their sleepiness/alertness level on a Likert scale from 1 to 9, with 1 being extremely sleepy and 9 being extremely alert.
sSOL—subjective sleep onset latency: estimated minutes from the time that the subject attempted to sleep until sleep onset.
as §1
(§6) Once home, the subject ingested study drug each night prior to bedtime and completed their sleep diary within 1 hour of waketime.

[3] = system: Subjects Having Insomnia Disorder; assay: Example 2: subjective total sleep time (sTST), sleep diary; settings: Zolpidem ER 6.25 mg
Text: As used herein, the term “subjective total sleep time”, abbreviated as “sTST”, means the derived minutes of sleep from sleep onset until the time the subject stopped trying to sleep for the night. In some embodiments, sTST is derived from data entered in a subject's Sleep Diary.
as §5
sTST—subjective total sleep time: derived minutes of sleep from sleep onset until the time the subject stopped trying to sleep for the night.
as §1, §6

[4] = system: Subjects Having Insomnia Disorder; assay: Example 2: postural stability, body sway upon awakening in morning; settings: Zolpidem ER 6.25 mg
Text: Subjects were provided with a sleep diary and trained on how to record entries. After subjects completed the sleep diary on 7 consecutive mornings, and provided that the subject was still eligible to participate in the study, they attended a second clinical meeting between 10 and 17 days before the randomization phase. The subject was then fitted with a polysomnogram and trained in how to complete the postural stability assessment and cognitive performance assessment battery. Subjects then underwent an 8-hour polysomnogram recording. Within 5 minutes of waking, the postural stability assessment and cognitive assessment battery were conducted on the subject.
as §2, §3, §4
An exemplary additional secondary endpoint is the change from baseline on the postural stability test of mean units of body sway on Days 2 and 3 after administration of 5 mg or 10 mg of lemborexant compared to zolpidem.

SMILES: Cc1ccc(-c2nc3ccc(C)cn3c2CC(=O)N(C)C)cc1 [Zolpidem ER, zolpidem, reference compound]
- Wake After Sleep Onset in the Second Half of the Night, Change from Study Baseline, Mean (SD) ([1]; Days 1/2): −24.64 (33.347)
- Wake After Sleep Onset in the Second Half of the Night, Change from Study Baseline, Median ([1]; Days 1/2): −24.13
- Wake After Sleep Onset in the Second Half of the Night, Mean (SD) ([1]; Days 1/2): 53.30 (27.706)
- Wake After Sleep Onset in the Second Half of the Night, Median ([1]; Days 1/2): 49.25
- Wake After Sleep Onset in the Second Half of the Night, Change from Study Baseline, Mean (SD) ([1]; Days 29/30): −21.42 (36.257)
- Wake After Sleep Onset in the Second Half of the Night, Change from Study Baseline, Median ([1]; Days 29/30): −19.13
- Wake After Sleep Onset in the Second Half of the Night, Mean (SD) ([1]; Days 29/30): 56.74 (31.112)
- Wake After Sleep Onset in the Second Half of the Night, Median ([1]; Days 29/30): 51.25
- sSOL Change from Study Baseline, Mean (SD) ([2]; First 7 Nights of Treatment): −16.23 (29.531) minutes
- sSOL Change from Study Baseline, Median ([2]; First 7 Nights of Treatment): -10.00 min
- sSOL, Mean (SD) ([2]; First 7 Nights of Treatment): 44.61 (27.566) minutes
- sSOL, Median ([2]; First 7 Nights of Treatment): 34.29 min
- sSOL Change from Study Baseline, Mean (SD) ([2]; Last 7 Nights of Treatment): −17.04 (30.683) minutes
- sSOL Change from Study Baseline, Median ([2]; Last 7 Nights of Treatment): -10.71 min
- sSOL, Mean (SD) ([2]; Last 7 Nights of Treatment): 43.64 (30.649) minutes
- sSOL, Median ([2]; Last 7 Nights of Treatment): 37.50 min
- sSOL, Mean (SD) ([2]; Study Baseline): 60.54 (36.350) minutes
- sSOL, Median ([2]; Study Baseline): 53.21 min
- Subjective Total Sleep Time, Change from Study Baseline, Mean (SD) ([3]; First 7 Nights of Treatment): 56.99 (62.880)
- Subjective Total Sleep Time, Mean (SD) ([3]; First 7 Nights of Treatment): 325.64 (81.845)
- Subjective Total Sleep Time, Model-adjusted change from baseline ([3]; First 7 Nights of Treatment): 57.71
- Subjective Total Sleep Time, Change from Study Baseline, Mean (SD) ([3]; Last 7 Nights of Treatment): 71.01 (76.574)
- Subjective Total Sleep Time, Mean (SD) ([3]; Last 7 Nights of Treatment): 340.20 (83.582)
- Subjective Total Sleep Time, Model-adjusted change from baseline ([3]; Last 7 Nights of Treatment): 71.04
- Body Sway Upon Awakening in Morning, Change from Study Baseline, Mean (SD) ([4]; Days 2/3): 4.07 ⅓ degree angle of arc
- Body Sway Upon Awakening in Morning, Change from Study Baseline, Median ([4]; Days 2/3): 2.50 ⅓ degree angle of arc
- Body Sway Upon Awakening in Morning, Mean (SD) ([4]; Days 2/3): 29.86 ⅓ degree angle of arc
- Body Sway Upon Awakening in Morning, Median ([4]; Days 2/3): 25.00 ⅓ degree angle of arc
- Body Sway Upon Awakening in Morning, Change from Baseline, Mean (SD) ([4]; Days 30/31): 2.12 ⅓ degree angle of arc
- Body Sway Upon Awakening in Morning, Change from Baseline, Median ([4]; Days 30/31): 2.50 ⅓ degree angle of arc
- Body Sway Upon Awakening in Morning, Mean (SD) ([4]; Days 30/31): 27.65 ⅓ degree angle of arc
- Body Sway Upon Awakening in Morning, Median ([4]; Days 30/31): 22.50 ⅓ degree angle of arc
